Experimental data taken from US11654138B2, “Therapeutic agents for treating and preventing autoimmune diseases and cancer and a screening method” (KING FAISAL UNIVERSITY, priority 2019, dated 2023).

Tests used:
CIA = experiment: Collagen-induced arthritis (CIA) model; type: in vivo, C57BL mice; settings: for CIA clinical scores: 0.25 mg i.p. on days 0, 3, 6, 9, 12, 15, 18, vs corn oil, FIG. 7A; for Serum level of IL-6 / Frequency of CD4+IL-17+ cells in the secondary lymphoid organs: 0.25 mg i.p.; for Serum level of IL-6: day 45, FIG. 7B; for Frequency of CD4+IL-17+ cells in the secondary lymphoid organs: day 45, flow cytometry, FIG. 7C
IMQ-induced psoriasis = IMQ-induced psoriasis model; type: in vivo, male BALB/c mice; settings: for Clinical scores (erythema and thickness of the right ear): topical ointment 40 mg/cm^2 day 0 to 8, vs Vaseline, FIG. 8A; for Il6 mRNA expression in whole biopsies of the right ear / Il17a mRNA expression in whole biopsies of the right ear: topical ointment, day 8, FIG. 8B
Experimental: Experimental psoriasis was induced following a modified method described previously (Sun et al. 2013). To induce disease in male BALB/c mice (6-8 weeks; n=6), imiquimod (IMG; Sichuan Med-Shine Pharmaceutical) at 5% was applied topically at 20 mg/cm^2 on the inside of the right ear for 8 consecutive days. An evaluation system for assessment of erythema and thickness of the ear was developed. Erythema was assessed using a table with red […] (0-4) and ear thickness (0-4) measured using a digital caliber on days 2, 4, 6, and 8 after first IMQ application. The sum of the two parameters scores (ranging from 0-8) was used to indicate the overall clinical score. Treatment ointment was prepared by mixing 1 mg of DMSO-dissolved POE or its representative analogs including POE A2 or POE A3 with 20 gm of Vaseline Petroleum Jelly Original (vehicle, Unilever Inc.); the mixture was then incubated at room temperature overnight. From day 0 to day 8 the mice were treated topically with the treatment ointment (40 mg/cm^2) or Vaseline (IMQ/control). The mRNAs encoding Il6 and Il17a were isolated from whole biopsies of the ear (day 8) and reverse transcribed to make cDNA. The cDNA was then amplified by real-time PCR using TaqMan Gene Expression Assays (Mm00446190_ml, Mm00439618_ml, respectively; Applied Biosystems). The relative expression of mRNAs was calculated by the ΔΔCt method and presented relative to that of IMQ control mice.

SMILES | CIA clinical scores (CIA) | Serum level of IL-6 (CIA) | Frequency of CD4+IL-17+ cells in the secondary lymphoid organs (CIA) | Clinical scores (erythema and thickness of the right ear) (IMQ-induced psoriasis) | Il6 mRNA expression in whole biopsies of the right ear (IMQ-induced psoriasis) | Il17a mRNA expression in whole biopsies of the right ear (IMQ-induced psoriasis)
Cc1nnc(SCC(=O)c2ccccc2)o1 [POE A1] | comparably reduced CIA clinical scores | reduced serum levels of IL-6 | reduced the frequency of CD4^+IL-17^+ cells | – | – | –
Cc1nnc(NCC(=O)c2ccccc2)s1 [POE A2, 2-[(5-methyl-1,3,4-thiadiazol-2-yl)amino]-1-phenylethan-1-one] | comparably reduced CIA clinical scores | reduced serum levels of IL-6 | reduced the frequency of CD4^+IL-17^+ cells | comparably reduced clinical scores | suppressed mRNA expression | suppressed mRNA expression
CC(=O)CSc1nnc(-c2cccnc2)o1 [POE A3, 2-Propanone, 1-[[5-(3-pyridinyl)-1,3,4-oxadiazol-2-yl]thio]-] | – | – | – | comparably reduced clinical scores | suppressed mRNA expression | suppressed mRNA expression
